Biological target: T1, Quinolone resistance protein NorA (Staphylococcus aureus) (UniProt P0A0J7)
T1 sequence (whole entry): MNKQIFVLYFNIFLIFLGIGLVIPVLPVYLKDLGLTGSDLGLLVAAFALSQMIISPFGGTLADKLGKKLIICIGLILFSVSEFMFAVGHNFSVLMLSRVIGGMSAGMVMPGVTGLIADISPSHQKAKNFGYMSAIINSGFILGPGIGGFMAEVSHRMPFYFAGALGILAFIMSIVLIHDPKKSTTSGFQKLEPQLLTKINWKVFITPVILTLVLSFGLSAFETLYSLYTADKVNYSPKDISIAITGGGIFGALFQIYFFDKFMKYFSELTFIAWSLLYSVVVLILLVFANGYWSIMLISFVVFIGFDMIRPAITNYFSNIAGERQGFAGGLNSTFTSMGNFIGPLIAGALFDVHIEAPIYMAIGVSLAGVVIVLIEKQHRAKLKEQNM
Test: Inhibition of NorA in Staphylococcus aureus SA-K2378 assessed as synergistic potentiation of ciprofloxacin-induced antimicrobial activity at 0.78 ug/ml by microdilution method based Checkerboard assay

For `CCCOc1ccc(-c2cc(OCCN3CCCCC3)c3cc(OC)ccc3n2)cc1`, the fold change (FC) was 8.
